Data reported in patent US20230089073A1 (Carmot Therapeutics, Inc., priority 2021, published 2023).

The molecules below were run against T1, human GLP-1 receptor (Homo sapiens, UniProt P43220) (assay: GLP-1R cAMP Assay). Conditions: cAMP accumulation in CHO cells stably overexpressing the human GLP-1 receptor; 30 min treatment; HitHunter cAMP kit; read-out: EC50.
T1 construct: expressed in transfected cells
Type: cell-based
How it was run: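 Luminescent enzyme-complementation detection of cAMP, read after cell lysis and overnight incubation, with dose-response curve fitting. Stimulation lasted 30 min, using 20-point triplicate dosing on CHO cells (10,000 per well) stably overexpressing human GLP-1R.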

T1 sequence (P43220 24-463): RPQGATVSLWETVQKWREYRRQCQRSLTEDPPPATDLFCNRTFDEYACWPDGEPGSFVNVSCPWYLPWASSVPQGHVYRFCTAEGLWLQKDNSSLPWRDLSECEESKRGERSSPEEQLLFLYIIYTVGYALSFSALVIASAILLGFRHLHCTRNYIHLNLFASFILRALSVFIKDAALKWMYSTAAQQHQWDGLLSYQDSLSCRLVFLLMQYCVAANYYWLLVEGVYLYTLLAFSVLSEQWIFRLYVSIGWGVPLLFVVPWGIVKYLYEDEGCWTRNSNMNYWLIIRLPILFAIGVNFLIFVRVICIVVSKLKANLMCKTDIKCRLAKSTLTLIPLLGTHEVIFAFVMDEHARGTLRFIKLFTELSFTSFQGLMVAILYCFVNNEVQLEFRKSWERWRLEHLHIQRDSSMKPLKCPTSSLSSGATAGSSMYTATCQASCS

Row | EC50 [nM] | Structure (SMILES)
1 | > 500 | O=C(O)c1ccc2nc(CN3CCc4c([nH]c5c(OCc6ccc(Cl)cc6F)cccc45)C3)n(C[C@@H]3CCO3)c2c1 [Example 121, (S)-2-((8-((4-Chloro-2-fluorobenzyl)oxy)-1,3,4,9-tetrahydro-2H-pyrido[3,4-b]indol-2-yl)methyl)-1-(oxetan-2-ylmethyl)-1H-benzo[d]imidazole-6-carboxylic acid]
2 | < 50 | N#Cc1ccc(OCc2cc(OC3CCN(Cc4nc5ccc(C(=O)O)cc5n4C[C@@H]4CCO4)CC3)ccn2)c(Cl)c1 [Compound 358]
3 | 50 to 500 | CCn1cncc1Cn1c(CN2CCN(C(=O)c3cccc(N(C)c4ccc(C)cc4Cl)c3)CC2)nc2ccc(C(=O)O)cc21 [Compound 54, 2-[(4-{3-[(2-chloro-4-methylphenyl)(methyl)amino]benzoyl}piperazin-1-yl)methyl]-1-[(1-ethyl-1H-imidazol-5-yl)methyl]-1H-1,3-benzodiazole-6-carboxylic acid]
4 | 50 to 500 | CCn1cncc1Cn1c(CN2CCC([C@@H](OC)c3cccc(COc4ccc(Cl)cc4Cl)c3)CC2)nc2ccc(C(=O)O)cc21 (single isomer, unassigned) [Example 204]
5 | < 50 | O=C(O)c1ccc2nc(CN3CCC(Oc4ccnc(COc5ccc(Cl)cc5F)n4)CC3)n(C[C@@H]3CCO3)c2c1 [Compound 296, 2-{[4-({2-[(4-chloro-2-fluorophenoxy)methyl]pyrimidin-4-yl}oxy)piperidin-1-yl]methyl}-1-{[(2S)-oxetan-2-yl]methyl}-1H-1,3-benzodiazole-6-carboxylic acid]
6 | < 50 | Cc1cc(C2CC2)ccc1N(C)c1cccc(C(=O)N2CCN(Cc3nc4ccc(C(=O)O)cc4n3C[C@@H]3CCO3)CC2)c1 [Example 115, (S)-2-((4-(3-((4-Cyclopropyl-2-methylphenyl)(methyl)amino)benzoyl)piperazin-1-yl)methyl)-1-(oxetan-2-ylmethyl)-1H-benzo[d]imidazole-6-carboxylic acid]
7 | > 500 | O=C(O)c1ccc2nc(CN3CCN(C(=O)c4ncc(COc5ccc(Cl)cc5Cl)o4)CC3)n(C[C@@H]3CCO3)c2c1 [Compound 113, 2-[(4-{5-[(2,4-dichlorophenoxy)methyl]-1,3-oxazole-2-carbonyl}piperazin-1-yl)methyl]-1-{[(2S)-oxetan-2-yl]methyl}-1H-1,3-benzodiazole-6-carboxylic acid]
8 | > 500 | N#Cc1ccccc1Oc1ccccc1C(=O)N1CCN(Cc2nc3ccc(C(=O)O)cc3n2C[C@@H]2CCO2)CC1 [Compound 4, 2-({4-[2-(2-cyanophenoxy)benzoyl]piperazin-1-yl}methyl)-1-{[(2S)-oxetan-2-yl]methyl}-1H-1,3-benzodiazole-6-carboxylic acid]
9 | > 500 | Cc1ccc(OCc2ccc(C(=O)N3CCN(Cc4nc5ccc(C(=O)O)cc5n4C[C@@H]4CCO4)CC3)o2)c(Cl)c1 [Compound 38, 2-[(4-{5-[(2-chloro-4-methylphenoxy)methyl]furan-2-carbonyl}piperazin-1-yl)methyl]-1-{[(2S)-oxetan-2-yl]methyl}-1H-1,3-benzodiazole-6-carboxylic acid]
10 | > 500 | Cc1ccc(N(C)c2cccc(C3(N4CCN(Cc5nc6ccc(C(=O)O)cc6n5C[C@@H]5CCO5)CC4)CC3)c2)c(Cl)c1 [Example 105, (S)-2-((4-(1-(3-((2-chloro-4-methylphenyl)(methyl)amino)phenyl)cyclopropyl)piperazin-1-yl)methyl)-1-(oxetan-2-ylmethyl)-1H-benzo[d]imidazole-6-carboxylic acid]
11 | < 50 | N#Cc1ccc(OCc2cc(OC3CCN(Cc4nc5c(F)cc(C(=O)O)cc5n4C[C@@H]4CCO4)CC3)c(F)cn2)c(F)c1 [Compound 478, 2-{[4-({2-[(4-cyano-2-fluorophenoxy)methyl]-5-fluoropyridin-4-yl}oxy)piperidin-1-yl]methyl}-4-fluoro-1-{[(2S)-oxetan-2-yl]methyl}-1H-1,3-benzodiazole-6-carboxylic acid]
12 | < 50 | CCn1cncc1Cn1c(CN2CCC(Cc3cnc(COc4ccc(Cl)cc4C)o3)CC2)nc2ccc(C(=O)O)cc21 [Compound 141, 2-{[4-({2-[(4-chloro-2-methylphenoxy)methyl]-1,3-oxazol-5-yl}methyl)piperidin-1-yl]methyl}-1-[(1-ethyl-1H-imidazol-5-yl)methyl]-1H-1,3-benzodiazole-6-carboxylic acid]
13 | > 500 | O=C(O)c1ccc2nc(CN3CCN(C(=O)c4ccc(COc5ccccc5Cl)o4)CC3)n(C[C@@H]3CCO3)c2c1 [Compound 39, 2-[(4-{5-[(2-chlorophenoxy)methyl]furan-2-carbonyl}piperazin-1-yl)methyl]-1-{[(2S)-oxetan-2-yl]methyl}-1H-1,3-benzodiazole-6-carboxylic acid]
14 | < 50 | N#Cc1cc(Cl)ccc1OCc1cc(OC2CCN(Cc3nc4ccc(C(=O)O)cc4n3C[C@@H]3CCO3)CC2)ccn1 [Compound 182, 2-{[4-({2-[(4-chloro-2-cyanophenoxy)methyl]pyridin-4-yl}oxy)piperidin-1-yl]methyl}-1-{[(2S)-oxetan-2-yl]methyl}-1H-1,3-benzodiazole-6-carboxylic acid]
15 | < 50 | N#Cc1ccc(OCc2nccc(O[C@@H]3C[C@@H]4C[C@H]3CN4Cc3nc4ccc(C(=O)O)cc4n3C[C@@H]3CCO3)n2)c(F)c1 [Compound 506, 2-{[(1S,4S,5R)-5-({2-[(4-cyano-2-fluorophenoxy)methyl]pyrimidin-4-yl}oxy)-2-azabicyclo[2.2.1]heptan-2-yl]methyl}-1-{[(2S)-oxetan-2-yl]methyl}-1H-1,3-benzodiazole-6-carboxylic acid]
16 | 50 to 500 | Cc1ccc(N(C)c2cccc(C(=O)N3CCN(Cc4nc5ccc(C(=O)O)cc5n4C[C@@H]4CCO4)CC3)n2)c(Cl)c1 [Compound 101, 2-[(4-{6-[(2-chloro-4-methylphenyl)(methyl)amino]pyridine-2-carbonyl}piperazin-1-yl)methyl]-1-{[(2S)-oxetan-2-yl]methyl}-1H-1,3-benzodiazole-6-carboxylic acid]
17 | > 500 | Cc1ccc(Oc2ccc(C(=O)N3CCN(Cc4nc5ccc(C(=O)O)cc5n4C[C@@H]4CCO4)CC3)cc2)cc1 [Compound 22, 2-({4-[4-(4-methylphenoxy)benzoyl]piperazin-1-yl}methyl)-1-{[(2S)-oxetan-2-yl]methyl}-1H-1,3-benzodiazole-6-carboxylic acid]
18 | < 50 | Cc1cc(C(=O)O)cc2c1nc(CN1CCC(Oc3ccnc(COc4ccc(C#N)cc4F)c3)CC1)n2C[C@@H]1CCO1 [Compound 499, 2-{[4-({2-[(4-cyano-2-fluorophenoxy)methyl]pyridin-4-yl}oxy)piperidin-1-yl]methyl}-4-methyl-1-{[(2S)-oxetan-2-yl]methyl}-1H-1,3-benzodiazole-6-carboxylic acid]
19 | < 50 | CCn1cncc1Cn1c(CN2CCC(Oc3ccnc(COc4ccc(C#N)cc4F)n3)CC2)nc2ccc(C(=O)O)cc21 [Example 261, 2-((4-((2-((4-Cyano-2-fluorophenoxy)methyl)pyrimidin-4-yl)oxy)piperidin-1-yl)methyl)-1-((1-ethyl-1H-imidazol-5-yl)methyl)-1H-benzo[d]imidazole-6-carboxylic acid]
